These compounds were tested against T1, F508del (Homo sapiens, UniProt P13569, DEL508-508) (assay: Protocol 1: membrane potential optical assay (FLIPR III, voltage sensing dye), identification of potentiator compounds). Details: Table 3, compounds of Table 1.
T1 construct: expressed in transfected cells
T1 sequence (P13569 with tags, fused parts or gaps DEL508-508): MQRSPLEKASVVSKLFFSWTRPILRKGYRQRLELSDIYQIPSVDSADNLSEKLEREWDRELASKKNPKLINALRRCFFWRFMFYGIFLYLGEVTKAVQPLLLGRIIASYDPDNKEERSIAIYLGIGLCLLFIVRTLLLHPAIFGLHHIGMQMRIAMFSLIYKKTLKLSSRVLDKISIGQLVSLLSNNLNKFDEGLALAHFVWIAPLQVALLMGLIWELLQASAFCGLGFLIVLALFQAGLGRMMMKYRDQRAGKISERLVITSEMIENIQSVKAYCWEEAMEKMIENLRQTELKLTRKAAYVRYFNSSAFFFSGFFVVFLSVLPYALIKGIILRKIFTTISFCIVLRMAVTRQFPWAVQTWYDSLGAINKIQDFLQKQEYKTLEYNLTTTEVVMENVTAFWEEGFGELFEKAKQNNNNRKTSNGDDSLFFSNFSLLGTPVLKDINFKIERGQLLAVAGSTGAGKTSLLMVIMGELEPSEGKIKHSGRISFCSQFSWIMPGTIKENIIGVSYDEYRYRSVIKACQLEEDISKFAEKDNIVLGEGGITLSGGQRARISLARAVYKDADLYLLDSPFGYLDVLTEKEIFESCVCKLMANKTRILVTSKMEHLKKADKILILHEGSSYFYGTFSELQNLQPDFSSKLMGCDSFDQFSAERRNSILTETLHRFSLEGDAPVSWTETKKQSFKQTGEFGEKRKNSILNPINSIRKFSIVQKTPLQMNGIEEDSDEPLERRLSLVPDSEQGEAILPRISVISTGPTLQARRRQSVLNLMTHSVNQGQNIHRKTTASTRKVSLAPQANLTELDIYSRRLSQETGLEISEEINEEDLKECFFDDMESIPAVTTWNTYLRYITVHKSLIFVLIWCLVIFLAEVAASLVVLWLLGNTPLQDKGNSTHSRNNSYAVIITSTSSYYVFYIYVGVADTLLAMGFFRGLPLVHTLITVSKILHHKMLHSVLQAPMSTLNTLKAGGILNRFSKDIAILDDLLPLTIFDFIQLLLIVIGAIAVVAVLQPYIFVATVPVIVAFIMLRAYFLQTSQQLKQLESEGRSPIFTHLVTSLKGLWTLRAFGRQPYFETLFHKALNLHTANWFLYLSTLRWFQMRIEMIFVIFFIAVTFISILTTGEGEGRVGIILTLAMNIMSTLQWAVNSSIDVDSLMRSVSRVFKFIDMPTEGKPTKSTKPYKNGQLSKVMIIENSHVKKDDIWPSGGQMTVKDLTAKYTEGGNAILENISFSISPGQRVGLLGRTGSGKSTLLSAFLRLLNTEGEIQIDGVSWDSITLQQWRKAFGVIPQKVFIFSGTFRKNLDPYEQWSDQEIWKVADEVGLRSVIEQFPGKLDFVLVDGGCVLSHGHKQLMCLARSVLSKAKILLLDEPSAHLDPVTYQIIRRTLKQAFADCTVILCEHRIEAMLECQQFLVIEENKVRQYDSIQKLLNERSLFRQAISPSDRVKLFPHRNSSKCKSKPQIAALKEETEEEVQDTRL
Type: cell-based
How it was run: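 NIH3T3 F508del cells, 27° C × 24 hrs; compound/DMSO pretreat → redistribution dye load → single forskolin addition with Cl⁻ gradient (gluconate-substituted bath, HEPES pH 7.4). FLIPR III membrane-potential fluorescence read.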
With CC1CN(c2ncccc2C(=O)NS(=O)(=O)c2cccc(OCC3CCNC3)n2)C(C)(C)C1 (stereo not drawn) [Compound 1734, N—[[6-(pyrrolidin-3-ylmethoxy)-2-pyridyl]sulfonyl]-2-(2,2,4-trimethylpyrrolidin-1-yl)pyridine-3-carboxamide] the EC30 was “+++ (“+++” means <3 uM)”. With C[C@@H]1CN(c2nc(-c3cc(F)cc(OCC(C)(C)O)c3)ccc2C(=O)NS(=O)(=O)c2cccc(N)n2)C(C)(C)C1 [Compound 1424, N-[(6-amino-2-pyridyl)sulfonyl]-6-[3-fluoro-5-(2-hydroxy-2-methyl-propoxy)phenyl]-2-[(4S)-2,2,4-trimethylpyrrolidin-1-yl]pyridine-3-carboxamide] the EC30 was “+++ (“+++” means <3 uM)”. With Cc1cc(C)c(CN2Cc3ccccc3C2(C)C(=O)NS(=O)(=O)c2ccccc2)c(C)c1 (stereo not drawn) [Compound 873, N-(benzenesulfonyl)-1-methyl-2-[(2,4,6-trimethylphenyl)methyl]isoindoline-1-carboxamide] the EC30 was “+++ (“+++” means <3 uM)”. With CC(C)COc1cc(F)cc(-c2ccc(C(=O)NS(=O)(=O)c3cccc(N)n3)c(N3CC(C)(C)CC3(C)C)n2)c1 [Compound 850, N-[(6-amino-2-pyridyl)sulfonyl]-6-(3-fluoro-5-isobutoxy-phenyl)-2-(2,2,4,4-tetramethylpyrrolidin-1-yl)pyridine-3-carboxamide] the EC30 was “+++ (“+++” means <3 uM)”. For Cc1nc(OCC(C)C)ccc1-c1ccc(C(=O)NS(=O)(=O)c2cccc(N)n2)c(N2[C@H](C)CC[C@@H]2C)n1 [Compound 1537, N-[(6-amino-2-pyridyl)sulfonyl]-2-[(2R,5S)-2,5-dimethylpyrrolidin-1-yl]-6-(6-isobutoxy-2-methyl-3-pyridyl)pyridine-3-carboxamide], the EC30 was “+++ (“+++” means <3 uM)”. For CC(C)COc1cc(F)cc(-c2ccc(C(=O)NS(=O)(=O)c3ccn[nH]3)c(N3CCC(C)CC3)n2)c1 [Compound 1083, 6-(3-fluoro-5-isobutoxy-phenyl)-2-(4-methyl-1-piperidyl)-N-(1H-pyrazol-5-ylsulfonyl)pyridine-3-carboxamide], the EC30 was “+++ (“+++” means <3 uM)”. In the case of CC(C)COc1cc(F)cc(-c2ccc(C(=O)NS(=O)(=O)c3cccc(N)n3)c(N3CCC4CC43)n2)c1 (stereo not drawn) [Compound 906, N-[(6-amino-2-pyridyl)sulfonyl]-2-(4-azabicyclo[3.1.0]hexan-4-yl)-6-(3-fluoro-5-isobutoxy-phenyl)pyridine-3-carboxamide], the EC30 is reported as “+++ (“+++” means <3 uM)”. In the case of CC1CN(c2nc(-c3ccc(OC(C)C)nc3)ccc2C(=O)NS(=O)(=O)c2ccn[nH]2)C(C)(C)C1 (stereo not drawn) [Compound 1352, 6-(6-isopropoxy-3-pyridyl)-N-(1H-pyrazol-5-ylsulfonyl)-2-(2,2,4-trimethylpyrrolidin-1-yl)pyridine-3-carboxamide], the EC30 is reported as “+++ (“+++” means <3 uM)”. In the case of CCOc1cccc2c1CN(Cc1ccc(Cl)nc1)C2(C)C(=O)NS(=O)(=O)c1cccc(N)n1 (stereo not drawn) [Compound 1565, N-[(6-amino-2-pyridyl)sulfonyl]-2-[(6-chloro-3-pyridyl)methyl]-4-ethoxy-1-methyl-isoindoline-1-carboxamide], the EC30 is reported as “+ (“+” means greater than 10 uM)”. For CC(C)COc1cc(F)cc(-c2ccc(C(=O)NS(=O)(=O)c3cccc(N)n3)c(N3[C@@H](C)CCC3(C)C)n2)c1 [Compound 1241, N-[(6-amino-2-pyridyl)sulfonyl]-6-(3-fluoro-5-isobutoxy-phenyl)-2-[(5S)-2,2,5-trimethylpyrrolidin-1-yl]pyridine-3-carboxamide], the EC30 was “+++ (“+++” means <3 uM)”. With CC1CN(c2ncccc2C(=O)NS(=O)(=O)c2cccc(NC(C)c3ccccc3)n2)C(C)(C)C1 (stereo not drawn) [Compound 1905, N—[[6-(1-phenylethylamino)-2-pyridyl]sulfonyl]-2-(2,2,4-trimethylpyrrolidin-1-yl)pyridine-3-carboxamide] the EC30 was “+++ (“+++” means <3 uM)”. With CC(C)[C@@H](C)Nc1ccc(-c2ccc(C(=O)NS(=O)(=O)c3cccc(N)n3)c(N3[C@H](C)CC[C@@H]3C)n2)cn1 [Compound 1442, N-[(6-amino-2-pyridyl)sulfonyl]-6-[6-[[(1R)-1,2-dimethylpropyl]amino]-3-pyridyl]-2-[(2S,5R)-2,5-dimethylpyrrolidin-1-yl]pyridine-3-carboxamide] the EC30 was “+++ (“+++” means <3 uM)”. In the case of C[C@@H]1CN(c2nc(-c3ccc4ccccc4c3)ccc2C(=O)NS(=O)(=O)c2ccc[nH]c2=O)C(C)(C)C1 [Compound 1803, 6-(2-naphthyl)-N-[(2-oxo-1H-pyridin-3-yl)sulfonyl]-2-[(4S)-2,2,4-trimethylpyrrolidin-1-yl]pyridine-3-carboxamide], the EC30 is reported as “+++ (“+++” means <3 uM)”. With CC(C)COc1cc(-c2ccc(C(=O)NS(=O)(=O)c3cccc(N)n3)c(N3[C@H](C)CC[C@@H]3C)n2)ccc1Cl [Compound 1197, N-[(6-amino-2-pyridyl)sulfonyl]-6-(4-chloro-3-isobutoxy-phenyl)-2-[(2S,5R)-2,5-dimethylpyrrolidin-1-yl]pyridine-3-carboxamide] the EC30 was “+++ (“+++” means <3 uM)”. CC(=O)NC1CCN(S(=O)(=O)NC(=O)c2ccc(-c3cc(F)cc(OCC(C)C)c3)nc2N2CC(C)CC2(C)C)C1 (stereo not drawn) [Compound 1391, N-(3-acetamidopyrrolidin-1-yl)sulfonyl-6-(3-fluoro-5-isobutoxy-phenyl)-2-(2,2,4-trimethylpyrrolidin-1-yl)pyridine-3-carboxamide] was tested, and the EC30 was “+++ (“+++” means <3 uM)”. With CC1CN(c2ncccc2C(=O)NS(=O)(=O)c2cccc(NC3CCC(C(C)(C)C)CC3)n2)C(C)(C)C1 (stereo not drawn) [Compound 1971, N—[[6-[(4-tert-butylcyclohexyl)amino]-2-pyridyl]sulfonyl]-2-(2,2,4-trimethylpyrrolidin-1-yl)pyridine-3-carboxamide] the EC30 was “+++ (“+++” means <3 uM)”. For Cc1cc(C)c(Oc2nc(C3=CCN(Cc4ccccc4)CC3)ccc2C(=O)NS(=O)(=O)c2cccc(N)n2)c(C)c1 [Compound 1389, N-[(6-amino-2-pyridyl)sulfonyl]-6-(1-benzyl-3,6-dihydro-2H-pyridin-4-yl)-2-(2,4,6-trimethylphenoxy)pyridine-3-carboxamide], the EC30 was “+++ (“+++” means <3 uM)”. For Cc1cccc(-c2ccc(C(=O)NS(=O)(=O)c3cccnc3N)c(N3C[C@@H](C)CC3(C)C)n2)c1C [Compound 1713, N-[(2-amino-3-pyridyl)sulfonyl]-6-(2,3-dimethylphenyl)-2-[(4S)-2,2,4-trimethylpyrrolidin-1-yl]pyridine-3-carboxamide], the EC30 was “+++ (“+++” means <3 uM)”. In the case of Cc1ccc(-c2ccc(C(=O)NS(=O)(=O)c3ccc[nH]c3=O)c(Oc3c(C)cc(C)cc3C)n2)cc1 [Compound 1300, N-[(2-oxo-1H-pyridin-3-yl)sulfonyl]-6-(p-tolyl)-2-(2,4,6-trimethylphenoxy)pyridine-3-carboxamide], the EC30 is reported as “+++ (“+++” means <3 uM)”. CC(C)(C)COc1cccc(-c2ccc(C(=O)NS(=O)(=O)c3cccc(N)n3)c(N3CCCC3(C)C)n2)n1 [Compound 1328, N-[(6-amino-2-pyridyl)sulfonyl]-6-[6-(2,2-dimethylpropoxy)-2-pyridyl]-2-(2,2-dimethylpyrrolidin-1-yl)pyridine-3-carboxamide] was tested, and the EC30 was “+++ (“+++” means <3 uM)”. With Cc1cc(C)c(Oc2nc(C)ccc2C(=O)NS(=O)(=O)c2cccc(N3CCOCC3)n2)c(C)c1 [Compound 883, 6-methyl-N-[(6-morpholino-2-pyridyl)sulfonyl]-2-(2,4,6-trimethylphenoxy)pyridine-3-carboxamide] the EC30 was “++ (“++” means between 3 uM and 10 uM)”.

From patent publication US10758534B2 (Vertex Pharmaceuticals Incorporated, priority 2014, dated 2020)
